Measurements reported in patent publication US12478624B2, “Heterocyclic derivatives, pharmaceutical compositions and their use in the treatment or amelioration of cancer” (Tolremo Therapeutics AG, priority 2019, dated 2025).

What was measured:
CBP Bromodomain = target: T1, CBP Bromodomain (Homo sapiens, UniProt Q92793); assay: Assay 3: CBP bromodomain binding assay (TR-FRET)
T1 construct: purchased Cayman chemicals 600850
Procedure: Assay 3 CBP Bromodomain Binding Assay (TR-FRET)
Compounds solutions of 10 mM in DMSO were pre-diluted in DSMO to 25× stock solutions in DMSO. These were then diluted down to 4× in assay buffer. A dilution series in assay buffer was performed keeping the DMSO concentration stable. 5 μl compound in assay buffer was transferred into the assay plate (provided by assay kit) and the TR-FRET assay Cayman chemicals; 600850) was performed using the manufactor's instructions. After 1 hour incubation at room temperature in the darks, assay plates were read in a Tecan M1000 plate reader or a Tecan Spaks reader using the TR-FRET mode (top read; excitation 340 nm bandwidth […]; emission 620 nm bandwidth […]; gain optimal determined for the first well, number of flashes: 5; flash frequency 100 Hz; integration time: 500 μs, lag time: 100 μs, room temperature). The TR-FRET ratio was calculated by deviding 670 nm emission by 620 nm emission. Values were log transformed and non-linear regression with variable slope (4 parameters) was used to fit values to a dose-response curve to evaluate EC50 values.

OPM-2 = assay: Assay 2: multiple myeloma cellular efficacy, PrestoBlue cell proliferation/survival; assay type: cell-based; settings: Homo sapiens, 96 h, OPM-2 cells, 4 days
Procedure, shortened: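 Cells seeded at 10000/well and exposed to a compound dose range or vehicle for 4 days, then stained with PrestoBlue for 2 h at 37 °C. Fluorescence was background-subtracted and normalized to vehicle; EC50 came from a four-parameter variable-slope fit against log concentration.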

A375 cells = assay: Assay 1: A375 cells treated with S1152, S1008 and compound, immunofluorescence (sc-365823) signal; assay type: cell-based; settings: 1 μM S1152 + 0.5 μM S1008, one day
Procedure, shortened: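 A375 cells treated one day with 1 μM S1152, 0.5 μM S1008 and compound dose ranges in DMEM/10% FCS, then fixed, permeabilised and immunostained. Green signal normalised to nuclear counterstain (ethidium-type or DAPI), log ratio fitted by four-parameter regression for EC50.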

T1 sequence (Q92793 1085-1192 limits assumed): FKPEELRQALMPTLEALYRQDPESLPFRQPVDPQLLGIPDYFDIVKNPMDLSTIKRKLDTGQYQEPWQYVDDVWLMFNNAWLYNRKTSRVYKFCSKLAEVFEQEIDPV

| SMILES | EC50 (CBP Bromodomain) | EC50 (A375 cells) | EC50 (OPM-2) |
| --- | --- | --- | --- |
| CC(=O)N1C[C@H](c2nc(Nc3cccc(-c4cnn(C)c4)c3)cc(-c3cnccn3)n2)CC[C@@H]1C [Compound 00065, 1-((2S,5R)-2-methyl-5-(4-((3-(1-methyl-1H-pyrazol-4-yl)phenyl)amino)-6-(pyrazin-2-yl)pyrimidin-2-yl)piperidin-1-yl)ethan-1-one] | < 200 nM | < 200 nM | < 200 nM |
| CC(=O)N1C[C@H](c2nc(Nc3cc(F)cc(-c4cnn(C)c4)c3)cc(-c3cnccn3)n2)CC[C@@H]1C [Compound 00066, 1-((2S,5R)-5-(4-((3-fluoro-5-(1-methyl-1H-pyrazol-4-yl)phenyl)amino)-6-(pyrazin-2-yl)pyrimidin-2-yl)-2-methylpiperidin-1-yl)ethan-1-one] | 1000 to 10000 nM | < 200 nM | < 200 nM |
| CC(=O)N1C[C@H](c2nc(Nc3ccc4nccn4c3)cc(-c3cccnc3)n2)CC[C@@H]1C [Compound 00013, 1-((2S,5R)-5-(4-(imidazo[1,2-a]pyridin-6-ylamino)-6-(pyridin-3-yl)pyrimidin-2-yl)-2-methylpiperidin-1-yl)ethan-1-one] | 200 to 1000 nM | 1000 to 10000 nM |  |
| CC(=O)N1C[C@H](c2nc(Nc3cc(F)cc(C(=O)N(C)C)c3)cc(-c3cccnc3)n2)CC[C@@H]1C [Compound 00038, 3-((2-((3R,6S)-1-acetyl-6-methylpiperidin-3-yl)-6-(pyridin3-yl)pyrimidin-4-yl)amino)-5-fluoro-N,N-dimethylbenzamide] | 200 to 1000 nM | 200 to 1000 nM |  |
| CC(=O)N1C[C@H](c2nc(Nc3cccc(-c4cn(C)nn4)c3)cc(-c3cccnc3)n2)CC[C@@H]1C [Compound 00053, 1-((2S,5R)-2-methyl-5-(4-((3-(1-methyl-1H-1,2,3-triazol-4-yl)phenyl)amino)-6-(pyridin-3-yl)pyrimidin-2-yl)piperidin-1-yl)ethan-1-one] | 1000 to 10000 nM | < 200 nM | < 200 nM |
| CC(=O)N1C[C@H](c2nc(Nc3ccccc3)cc(-c3cncc4[nH]ccc34)n2)CC[C@@H]1C (racemic) [Compound 00073, (+/−)-c/s-1-(2-methyl-5-(4-(phenylamino)-6-(1H-pyrrolo[2,3-c]pyridin-4-yl)pyrimidin-2-yl)piperidin-1-yl)ethan-1-one] | < 200 nM | < 200 nM | < 200 nM |
| CC(=O)N1C[C@H](c2nc(Nc3cc(C)nc(F)c3)cc(-c3cnccn3)n2)CC[C@@H]1C [Compound 00149, 1-((2S,5R)-5-(4-((2-fluoro-6-methylpyridin-4-yl)amino)-6-(pyrazin-2-yl)pyrimidin-2-yl)-2-methylpiperidin-1-yl)ethan1-one] | < 200 nM | < 200 nM | < 200 nM |
| CC(=O)N1C[C@H](c2nc(Nc3cc(F)cc(-c4cnn(C)c4)c3)cc(-c3cccnc3)n2)CC[C@@H]1C [Compound 00043, 1-((2S,5R)-5-(4-((3-fluoro-5-(1-methyl-1H-pyrazol-4-yl)phenyl)amino)-6-(pyridin-3-yl)pyrimidin-2-yl)-2-methylpiperidin-1-yl)ethan-1-one] | < 200 nM | < 200 nM |  |
| CC(=O)N1C[C@H](c2nc(Nc3ccncc3)cc(-c3cccnc3)n2)CC[C@@H]1C (racemic) [Compound 00101, (+/−)-c/s-1-(2-methyl-5-(4-(pyridin-3-yl)-6-(pyridin-4-ylamino)pyrimidin-2-yl)piperidin-1-yl)ethan-1-one] | 200 to 1000 nM | 200 to 1000 nM |  |
| CC(=O)N1C[C@H](c2nc(Nc3cccc4[nH]ncc34)cc(-c3cccnc3)n2)CC[C@@H]1C [Compound 00042, 1-((2S,5R)-5-(4-((1H-indazol-4-yl)amino)-6-(pyridin-3-yl)pyrimidin-2-yl)-2-methylpiperidin-1-yl)ethan-1-one] | 200 to 1000 nM | < 200 nM |  |
| CNC(=O)c1cc(F)cc(Nc2cc(-c3cccnc3)nc([C@@H]3CC[C@H](C)N(C(C)=O)C3)n2)c1 [Compound 00041, 3-((2-((3R,6S)-1-acetyl-6-methylpiperidin-3-yl)-6-(pyridin-3-yl)pyrimidin-4-yl)amino)-5-fluoro-N-methylbenzamide] | < 200 nM | < 200 nM | < 200 nM |
| CC(=O)N1C[C@H](c2nc(Nc3ccccc3)cc(-n3cnc(C)c3)n2)CC[C@@H]1C [Compound 00163, 1-((2S,5R)-2-methyl-5-(4-(4-methyl-1H-imidazol-1-yl)-6-(phenylamino)pyrimidin-2-yl)piperidin-1-yl)ethan-1-one] | 1000 to 10000 nM | 1000 to 10000 nM |  |
| CC(=O)N1C[C@H](c2nc(Nc3ccc4[nH]ncc4c3)cc(-c3cccnc3)n2)CC[C@@H]1C [Compound 00030, 1-((2S,5R)-5-(4-((1H-indazol-5-yl)amino)-6-(pyridin-3-yl)pyrimidin-2-yl)-2-methylpiperidin-1-yl)ethan-1-one] | 200 to 1000 nM | < 200 nM |  |
| CC(=O)N1C[C@H](c2nc(Nc3cccc4nn(C)cc34)cc(-c3cccnc3)n2)CC[C@@H]1C [Compound 00045, 1-((2S,5R)-2-methyl-5-(4-((2-methyl-2H-indazol-4-yl)amino)-6-(pyridin-3-yl)pyrimidin-2-yl)piperidin-1-yl)ethan-1-one] | < 200 nM | < 200 nM | 200 to 1000 nM |
| CC(=O)N1C[C@H](c2nc(Nc3cc(F)cc(-c4cnoc4)c3)cc(-c3cccnc3)n2)CC[C@@H]1C [Compound 00046, 1-((2S,5R)-5-(4-((3-fluoro-5-(isoxazol-4-yl)phenyl)amino)-6-(pyridin-3-yl)pyrimidin-2-yl)-2-methylpiperidin-1-yl)ethan-1-one] | < 200 nM | < 200 nM |  |

Second part, led by results:

| EC50 (CBP Bromodomain) | EC50 (A375 cells) | SMILES | EC50 (OPM-2) |
| --- | --- | --- | --- |
| < 200 nM |  | CC(=O)N1C[C@H](c2nc(Nc3ccnc(C)c3)cc(-c3cnccn3)n2)CC[C@@H]1C [Compound 00126, 1-((2S,5R)-2-methyl-5-(4-((2-methylpyridin-4-yl)amino)-6-(pyrazin-2-yl)pyrimidin-2-yl)piperidin-1-yl)ethan-1-one] |  |
| < 200 nM | < 200 nM | CC(=O)N1C[C@H](c2nc(Nc3ccnc(-c4cn(C)nn4)c3)cc(-c3cnccn3)n2)CC[C@@H]1C [Compound 00168, 1-((2S,5R)-2-methyl-5-(4-((2-(1-methyl-1H-1,2,3-triazol-4-yl)pyridin-4-yl)amino)-6-(pyrazin-2-yl)pyrimidin-2-yl)piperidin-1-yl)ethan-1-one] | < 200 nM |
| < 200 nM | < 200 nM | CC(=O)N1C[C@H](c2nc(Nc3cncc(C)c3)cc(-c3cnccn3)n2)CC[C@@H]1C [Compound 00001, 1-((2S,5R)-2-methyl-5-(4-((5-methylpyridin-3-yl)amino)-6-(pyrazin-2-yl)pyrimidin-2-yl)piperidin-1-yl)ethan-1-one] |  |
| < 200 nM | < 200 nM | CC(=O)N1C[C@H](c2nc(Nc3ccnc(C)c3)cc(-c3cncc(C)c3)n2)CC[C@@H]1C [Compound 00103, 1-((2S,5R)-2-methyl-5-(4-(5-methylpyridin-3-yl)-6-((2-methylpyridin-4-yl)amino)pyrimidin-2-yl)piperidin-1-yl)ethan-1-one] | < 200 nM |
| 200 to 1000 nM | < 200 nM | CC(=O)N1C[C@H](c2nc(Nc3cccc(C(F)F)c3)cc(-c3cccnc3)n2)CC[C@@H]1C [Compound 00039, 1-((2S,5R)-5-(4-((3-(difluoromethyl)phenyl)amino)-6-(pyridin-3-yl)pyrimidin-2-yl)-2-methylpiperidin-1-yl)ethan1-one] | < 200 nM |
| < 200 nM | < 200 nM | CC(=O)N1C[C@H](c2nc(Nc3cc(F)c4cn[nH]c4c3)cc(-c3cccnc3)n2)CC[C@@H]1C [Compound 00040, 1-((2S,5R)-5-(4-((4-fluoro-1H-indazol-6-yl)amino)-6-(pyridin-3-yl)pyrimidin-2-yl)-2-methylpiperidin-1-yl)ethan-1-one] |  |
| < 200 nM | < 200 nM | CC(=O)N1C[C@H](c2nc(Nc3cncc(C)c3)cc(-c3cccnc3)n2)CC[C@@H]1C [Compound 00009] | 200 to 1000 nM |
| < 200 nM | < 200 nM | CC(=O)N1C[C@H](c2nc(Nc3ccnc(F)c3)cc(-c3cccnc3)n2)CC[C@@H]1C [Compound 00104, 1-((2S,5R)-5-(4-((2-fluoropyridin-4-yl)amino)-6-(pyridin-3-yl)pyrimidin-2-yl)-2-methylpiperidin-1-yl)ethan-1-one] | < 200 nM |
| 1000 to 10000 nM | 1000 to 10000 nM | C[C@H]1CC[C@@H](c2nc(Nc3cccc(F)c3)cc(-c3cccnc3)n2)CN1C(N)=O [Compound 00165, (2S,5R)-5-(4-((3-fluorophenyl)amino)-6-(pyridin-3-yl)pyrimidin-2-yl)-2-methylpiperidine-1-carboxamide] |  |
| < 200 nM | < 200 nM | CC(=O)N1C[C@H](c2nc(Nc3cc(F)cc(-c4cn(C)nn4)c3)cc(-c3cnccn3)n2)CC[C@@H]1C [Compound 00069, 1-((2S,5R)-5-(4-((3-fluoro-5-(1-methyl-1H-1,2,3-triazol-4-yl)phenyl)amino)-6-(pyrazin-2-yl)pyrimidin-2-yl)-2-methylpiperidin-1-yl)ethan-1-one] | < 200 nM |
